Measured values from US20080008724A1 (Statens Serum Institute, priority 2006, published 2008).

B1: TB10.4: protein expressed by M. tuberculosis, recombinant (SEQ ID NO: 2) (protein, listed as Mycobacterium tuberculosis)
chain: MSQIMYNYPAMLGHAGDMAGYAGTLQSLGAEIAVEQAALQSAWQGDTGITYQAWQAQWNQAMEDLVRAYHAMSSTHEANTMAMMARDTAEAAKWGGX
modifications: X not resolved here

Test system: IFN-γ producing T cells
Assay: IFN-γ secretion (ELISA) of blood cells from mice vaccinated with TB10.4 antigens, stimulated with TB10.4 peptides
Format: in vivo
Conditions: for specific T-cell response (IFN-γ secretion, ELISA) after vaccination with the individual peptide: mice vaccinated three times with individual TB10.4 peptide in DDA/TDB, cells stimulated with 0.5 μg/ml of the same peptide

Molecule | specific T-cell response (IFN-γ secretion, ELISA) after vaccination with the individual peptide | T-cell recognition of TB10.4 peptides P1-P9 (IFN-γ secretion, ELISA) after vaccination (mice vaccinated 3 times at 2-week intervals in DDA/TDB, blood cells two weeks after final vaccination, stimulated with 0.5 μg/ml of individual peptides)
TB10.4-P1: amino acids 1 to 18 of SEQ ID NO: 2 (MSQIMYNYPAMLGHAGDM; listed as Mycobacterium tuberculosis) | induced a specific T-cell response | –
TB10.4-P3: amino acids 21 to 38 of SEQ ID NO: 2 (YAGTLQSLGAEIAVEQAA; listed as Mycobacterium tuberculosis) | induced a specific T-cell response | –
B1 | – | mainly induced P3 specific T cells
